Series [1] has as its system Trypanosoma cruzi. Kind of series: Trypanocidal activity against Trypanosoma cruzi Y strain measured after 24 hrs. Format: functional, organism-based.
Series [2] can be described thus: Selectivity ratio of IC50 for cytotoxicity against human MRC5 cells to IC50 for Trypanocidal activity against Trypanosoma cruzi Tulahuen CL2 strain. It is filed as toxicity, cell-based. The settings on record: read-out: Ratio IC50.
Series [3] deals with Trypanosoma cruzi. Kind of series: Trypanocidal activity against Trypanosoma cruzi Y strain amastigotes measured after 48 hrs. It is filed as functional, organism-based.
The test system of series [4] is Trypanosoma cruzi. Kind of series: Trypanocidal activity against Trypanosoma cruzi Y strain. It is filed as functional, organism-based.
Series [5] deals with Leishmania infantum. Kind of series: Antileishmanial activity against Leishmania infantum MCAN/ES/89/IPZ229/1/89 promastigotes assessed as reduction in parasite growth incubated for 24 hrs by flow cytometry analysis. Format: functional, organism-based. The following applies: MCAN/ES/89/IPZ229/1/89, 24 h. Background: In flow cytometry, cells or beads pass a laser one at a time.

For series [6], the system named is Leishmania infantum. Kind of series: Antileishmanial activity against Leishmania infantum MCAN/ES/89/IPZ229/1/89 amastigotes assessed as reduction in parasite growth incubated for 24 hrs by flow cytometry analysis. It is filed as functional, organism-based. The settings on record: MCAN/ES/89/IPZ229/1/89, 24 h.
Series [7] in a line: Selectivity ratio of IC50 for cytotoxicity against human THP-1 cells to IC50 for Antileishmanial activity against Leishmania infantum MCAN/ES/89/IPZ229/1/89 amastigotes. It is filed as toxicity, cell-based. The following applies: read-out: Ratio IC50.
Series [8] is described as follows: Selectivity ratio of IC50 for cytotoxicity against mouse J774.1 cells to IC50 for Trypanocidal activity against Trypanosoma cruzi Tulahuen 2 strain. The following applies: read-out: Ratio IC50. Format: toxicity, cell-based.
For series [9], the system named is Trypanosoma cruzi. Kind of series: Potency index, ratio of test compound IC50 to Benznidazole IC50 for Trypanocidal activity against Trypanosoma cruzi Y strain measured after 24 hrs. Format: functional.
In series [10] the test system is Trypanosoma cruzi. Kind of series: Trypanocidal activity against Trypanosoma cruzi Y strain epimastigotes measured after 72 hrs. It is filed as functional, organism-based.

The source of these data is ChEMBL document CHEMBL5244256, “Selenium as an interesting option for the treatment of Chagas disease: A review” (Eur J Med Chem, 2020).

The term IC50 denotes the concentration needed to halve the response being measured. For `COc1ccccc1/C=C/C=N/NC(N)=S`, the IC50 in series [1] was found to be 0.4 µM.

For the compound `CCOc1cccc2sc(N(Cc3cccnc3)C(=O)C3CCCCC3)nc12`, the selectivity ratio in series [2] is above 200.

`CCNC(=O)SCCOc1ccc(Oc2ccccc2)cc1` came in with an IC50 in [3] of 7.88 µM.

As for `CC1(C)OC2=C(CC1[Se]c1cccc(Cl)c1)C(=O)C(=O)c1ccccc12` (stereo not given), the IC50 in [4] was found to be 360 µM.

For `COc1cccc([Se]C2CC3=C(OC2(C)C)c2ccccc2C(=O)C3=O)c1` (stereo not given), inhibition in [4] was half-maximal at 208 µM (IC50).

As to `C[Se]/C(=N/C(=O)c1cccnc1)NC(=O)c1cccnc1`, the IC50 was 3.74 µM in [5] and 3.03 µM in [6]. Further, the selectivity ratio in [7] was 4.

`Cc1cccc([Se]C2CC3=C(OC2(C)C)c2ccccc2C(=O)C3=O)c1` (stereo not given): half-maximal inhibition in [4] (IC50) was put at 1680 µM.

In [4], `O=C(Cn1ccnc1[N+](=O)[O-])NCc1ccccc1` [BENZNIDAZOLE] displayed an IC50 of 104 µM.

Take `O=C(CS/C(C(=O)c1ccc2ccccc2c1)=C1\C=C(c2ccc(O)cc2)SS1)c1ccc2ccccc2c1`: the selectivity ratio at 48 h in series [8] was found to be 12.8.

For the compound `CC1(C)OC2=C(CC1[Se]c1ccc(C(F)(F)F)cc1)C(=O)C(=O)c1ccccc12` (stereo not given), the IC50 in series [4] turned out to be 54.9 µM. The “Ratio IC50” value in series [9] is on record as 2.

In series [10], `CC(C)=CCC/C(C)=C/COc1ccc(CCN(C)C(=O)/C=C/S(C)(=O)=O)cc1` yielded an IC50 of 1.23 µM.

Take `CC1(C)OC2=C(CC1[Se]c1cccc(Br)c1)C(=O)C(=O)c1ccccc12` (stereo not given): the IC50 in series [4] stood at 477 µM.
